The record followed here is patent US11691928B2, “Compositions, systems and methods for delivery of an element in response to biological demand” (Lucent Biosciences, Inc., priority 2018, dated 2023).

In data set [1] the test system is mung bean plants. The data set can be described thus: Plant growth study with salts or compositions comprising zinc or manganese on wood pulp in soil at elevated concentrations. The format is in vivo. The procedure:
Mung bean seeds were planted in 2 g of sterile sunshine mix soil in autoclaved jars. […] The wood pulp, acting as the carrier, was Canfor 350/70-1 (carrier C from Table 1). […] The root length was measured from start of roots to longest root tip. […] The plants to be used in the presence of compositions as disclosed herein were sowed in 2 g of sunshine mix to which 0.1 g of the composition was added, made of various concentrations of zinc or manganese. These were all watered with 5 mL deionized water. The beans grew in this treatment for 9 further days.

The nature of data set [2]: Effect of composition on pH of surrounding tap water. The format is physicochemical. As to conditions: 4 ppm iron; tap water alone 6.93. From the text: Since the pH of water is an important factor in biology for microorganism growth and survival, experiments were undertaken to determine what effect the compositions had on the pH of surrounding water.
The effects of 4 ppm iron-loaded composition (“Fe—WP”), iron chloride and iron sulfate on the pH of tap water was examined. […] However, the same amount of iron with sources of iron chloride and iron sulfate reduced the pH of tap water within a range of 1.6-2.9 units.

For `[Cl-].[Cl-].[Zn+2]` [zinc, zinc chloride], in data set [1] (2000 ppm in soil), the “toxicity for mung bean plants” value is “exhibits toxicity”. Also, in data set [1] (2000 ppm zinc as salt in soil, 9 days, FIGS. 7(a), 7(b)), the “mung bean stem height and root length growth” value was “reduced stem height and root length growth”. Take iron chloride [FeCl3]: the “PH of tap water” value in data set [2] stood at 4.03. As to `O=S(=O)([O-])[O-].O=S(=O)([O-])[O-].O=S(=O)([O-])[O-].[Fe+3].[Fe+3]` [Fe2(SO4)3, iron sulfate], in data set [2], the “PH of tap water” value stood at 4.17.
